Experimental data from publication PMC8659110, “Preliminary Study of New Gallium-68 Radiolabeled Peptide Targeting NRP-1 to Detect Brain Metastases by Positron Emission Tomography” (Molecules, 2021).
Read-outs that look alike come from different tables or passages of the source. Where a SMILES comes first, the peptide text is derived from it. Primed or numbered codes have the meaning given here. Where no end group is shown, it is not given here. The star is where a group is joined. Cy5(nonsulfonated) = CN1C(=CC=CC=CC2=[N+](CCCCCC(=O)*)c3ccccc3C2(C)C)C(C)(C)c2ccccc21; NODAGA = O=C(O)CN1CCN(CC(=O)O)CCN(C(CCC(=O)*)C(=O)O)CC1; Cy5 = Cy5 fluorophore (fluorescent dye); NODAGA′ = chelator

Assays:
[1] = system: MDA-MB-231 tumor in the rat brain; parameters: species or system nude rat; settings: in vivo
Description: Breast cells from the MDA-MB-231 lineage (MDA-MB-231 (ATCC® HTB-26)) were induced by the vascular injection of 2.5 × 10^5 cells resuspended in a volume of 50 µL of RPMI medium (Merck, Molsheim, France) into the animal’s internal carotid.
PET recordings were obtained with a camera dedicated to small animal studies (Inveon, Siemens Preclinical Solutions, Knoxville, TN, USA). After rats anesthetized with isoflurane, 50 MBq of [^68Ga]Ga-NODAGA-K(Cy5)DKPPR (1st day) were injected as a bolus via a lateral tail vein. […]
The uptake values are expressed in SUV (Standardized Uptake Values), which are standardized fixation values relative to the animal’s weight and injected activity. Tissue time activity curves (TTACs) for tumors and various organ activities were determined by average SUVs in volumes of interest (VOI), which were drawn with dedicated software (Inveon Research Workplace 4.1, Siemens®, Knoxville, USA) on static images encompassing the whole acquisition. […]

[2] = format: physicochemical; settings: 2 h
Description: (§1) The stability of [^68Ga]Ga-NODAGA-K(Cy5)DKPPR was performed in various media, final formulated media, and plasma.
The final [^68Ga]Ga-NODAGA-K(Cy5)DKPPR was kept at room temperature and analyzed by radio-HPLC at the end of the synthesis and 1 h, 2 h, and 3 h after manufacturing.

[3] = format: in vitro ADME, rodent
Description: as §1
For the stability in plasma, 100 µL of [^68Ga]Ga-NODAGA-K(Cy5)DKPPR was added to 400 µL of fresh rodent plasma and was incubated at 37 °C for 0, 30, 60, and 120 min. After incubation, the solutions were treated with 400 µL of acetonitrile to precipitate the proteins, vortexed for 1 min, and then centrifuged (2500 rpm, 980 G, 5 min). The supernatant layer was analyzed by analytical radio-HPLC.

[4] = target: NRP-1 recombinant chimeric protein; assay: Competitive binding assay with biotinylated VEGF-165 on recombinant NRP-1; settings: for IC50: in the presence of heparin, 2 h at room temperature, read-out: IC50 ± SD (displacement of 50% of b-VEGF-165); for Concentration needed to decrease the binding of b-VEGF-165 to NRP-1: only at high concentration
Excerpt: (§2) We evaluated the binding capacity of compounds toward NRP-1 using two different techniques: (1) a competitive binding assay with biotinylated VEGF (b-VEGF-165), a natural ligand of NRP-1 immobilized on a microplate surface in the presence of heparin, which allowed calculating the IC50 (the concentration of compound that displaced 50% of b-VEGF-165), and (2) surface plasmon resonance (SPR), a sensitive, optical-based, label-free detection technology for the real-time monitoring of molecular interactions between injected analytes and ligands covalently attached to the surface of a sensor chip. This technique was used to calculate the KD. VEGF-165 was used as the positive control in these two techniques.
The binding of compounds for the NRP-1 protein was evaluated in terms of the half-maximal inhibitory concentration (IC50 values) through a competitive assay, as previously described. VEGF-165, the natural ligand of NRP-1, was used as the positive control. Briefly, the surfaces of Maxisorp microplates (Thermo Fisher Scientific, France) were coated with NRP-1 recombinant chimeric proteins (Bio-techne, France). The binding of compounds to NRP-1 was assessed using biotinylated VEGF-165 (b-VEGF-165) (AcroBioSystem, Interchim, France) in the presence of heparin (Bio-techne, France) in competition or not with various concentrations of compounds or unlabeled VEGF-165 (Bio-techne, France) as the positive control. After 2 h of incubation at room temperature, the plates were washed, and the amount of bound b-VEGF-165 was stained with streptavidin horseradish peroxidase conjugate (Bio-techne, France) and assayed. […] The results were expressed as the mean of the relative absorbance percentage to wells containing only blocking buffers of triplicate measurements. The affinities were estimated as the IC50 values (i.e., the concentration of compounds that displaced 50% of β-VEGF-165 binding) calculated using the one-site fit log-IC50 nonlinear analysis regression of GraphPad Prism 6 software (v 6.05, USA).

[5] = target: T1, recombinant rat NRP-1 protein (Rattus norvegicus, UniProt Q9QWJ9); assay: Surface plasmon resonance (SPR) on immobilized recombinant NRP-1; format: binding; settings: Figure S5, injected at 10 and 30 µM
T1 construct: purchased Bio-techne (France)
Excerpt: as §2
The equilibrium dissociation constant (KD) was evaluated using surface plasmon resonance, based on Gries et al.. All experiments were performed at 25 °C using the BIACORE T200 instrument (GE Healthcare Biacore, Uppsala, Sweden). Sensor surfaces and other Biacore consumables were purchased from GE Healthcare Biacore (USA). […]
They flowed at a rate of 30 µL/min for 300 s at 25 °C. […] The equilibrium response was recorded 5 s before the end of the compound injection (time window: 5 s). […] The KD value was determined by fitting the response (RU) versus analyte concentration (µM) curve to a simple 1:1 interaction model with the BiaEvaluation 3.2 software (GE Healthcare). […]

[6] = Photophysical properties (absorption and fluorescence) in water; format: physicochemical; settings: for Fluorescence quantum yield (φF): λex = 590 nm
Description: All reactions involving cyanine5 compounds were performed in the dark. Preparative reverse-phase high-performance liquid chromatography (HPLC) was performed on SPOT PREP Liquid Chromatography (ARMEN Instrument, Saint-Avé, France) with a Pursuit 5-C18 column (5 μm, 21.2 × 150 mm; Varian). Pure compounds obtained were analyzed accordingly by LC-MS on a Shimadzu LCMS-2020 monitored by a Diode Array Detector SPD-M20A (Shimadzu, Marne la Vallée, France) using a Pursuit 5-C18 column (4.6 × 150 mm; Varian) (Varian, Agilent Technologies, Santa Clara, CA, USA). Absorption spectra were recorded on a Perkin-Elmer Lambda EZ210 (Perkin-Elmer, Courtaboeuf, France) double-beam UV–visible spectrophotometer. Fluorescence spectra were recorded on a Fluorolog-3 spectrofluorometer FL3-222 (Horiba Jobin Yvon, Longjumeau, France) with a thermostated cell compartment (25 °C) using a 450-W Xenon lamp. The fluorescence quantum yield (φF) was determined using tetraphenyl porphyrin (TPP) solution in toluene as the fluorescence standard (φF = 0.11).

MDA-MB-231 cells = assay: Proliferation assay, real-time cell tracking (IncuCyte), MDA-MB-231; format: cell-based; settings: for Doubling-time values (Time (h) ± SD): exponential phase
Description: (§3) The proliferation of MDA-MB-231 and HUVEC cells were investigated using a label-free, noninvasive IncuCyte® S3 live-cell imaging system (Sartorius, Germany). Cells were plated as described for metabolic activity placed in an incubator (Binder) at 37 °C. Cells were photographed at 2-h intervals using a 20× objective over several days. […] Phase–object confluence was calculated at each time point based on the segmentation of high-definition phase-contrast images using IncuCyte S3 2018B software and expressed in percentages. Experiments were performed in triplicate.
(§4) Cell doubling time (DT) was calculated using the following Equation (1):(1) DT=Tend−TstartLn2/LnCend−LnCstart where Tstart/Tend are the times at the start/end of the exponential growth phase. Cstart/Cend are the percentage of confluence of the cells at the start/end of the exponential growth phase.

NRP-1 = target: NRP-1; parameters: method as in PMID 22372770; settings: read-out: KD previously found; cited from earlier work
HUVEC cells = assay: Proliferation assay, real-time cell tracking (IncuCyte), HUVEC; format: cell-based, human; settings: for Doubling-time values (Time (h) ± SD): exponential phase
Description: as §3, §4

NRP-1 protein = system: NRP-1 protein; parameters: method as in PMID 19464192, PMID 25645959; settings: previous studies; cited from earlier work

[^68Ga]Ga-NODAGA-K(Cy5)DKPPR
Time to plateau of normalized tumor TTAC after injection [1]: roughly 10 min | In vitro stability, remaining stable [2]: > 95% | In vitro stability (time) [3]: > 120 min | In vitro stability, remaining stable ([3]; plasma, 2 h): > 95%

KRPKPD
IC50 [4]: 300 µM | Concentration needed to decrease the binding of b-VEGF-165 to NRP-1 [4]: > 100 µM | SPR interaction toward NRP-1 (shape of curve) [5]: weak affinity or a nonspecific interaction

C[N+]1=C(C=CC=CC=C2N(CCCCCC(=O)ON3C(=O)CCC3=O)c3ccccc3C2(C)C)C(C)(C)c2ccccc21.[Cl-] [Cy5-NHS, Cyanine5-NHS ester, reference compound]
Molar extinction coefficient (ε) [6]: 209,000 L mol^−1 cm^−1 | Fluorescence quantum yield (φF) [6]: 27%

VEGF-165: natural ligand of NRP-1, positive control
Shift of b-VEGF-165 binding to the receptor ([4]; used at 26 nM, positive control, data not shown): completely shifted

H-KDKPPR-OH [KDKPPR]
IC50 [4]: 2 ± 1 µM | Doubling-time values (Time (h) ± SD) (MDA-MB-231 cells; MDA MB 231, 1 µM): 32 ± 1 h | Doubling-time values (Time (h) ± SD) (MDA-MB-231 cells; MDA MB 231, 10 µM): 33 ± 2 h | Kd (NRP-1): 8.7 µM | Doubling-time values (Time (h) ± SD) (HUVEC cells; 1 µM): 29 ± 2 h | Doubling-time values (Time (h) ± SD) (HUVEC cells; 10 µM): 30 ± 2 h

^natGa-NODAGA-K(Cy5)RPKPD ({NODAGA′}-K(Cy5)RPKPD; also: NODAGA complexed with natGa)
Concentration needed to decrease the binding of b-VEGF-165 to NRP-1 [4]: > 100 µM | Doubling-time values (Time (h) ± SD) (MDA-MB-231 cells; MDA MB 231, 1 µM): 33 ± 1 h | Doubling-time values (Time (h) ± SD) (MDA-MB-231 cells; MDA MB 231, 10 µM): 33 ± 3 h | Molar extinction coefficient (ε) [6]: 39,870 L mol^−1 cm^−1 | Fluorescence quantum yield (φF) [6]: 79% | Doubling-time values (Time (h) ± SD) (HUVEC cells; 1 µM): 27 ± 1 h | Doubling-time values (Time (h) ± SD) (HUVEC cells; 10 µM): 28 ± 1 h | SPR interaction toward NRP-1 (shape of curve) [5]: weak affinity or a nonspecific interaction

CN1C(=CC=CC=CC2=[N+](CCCCCC(=O)NCCCC[C@H](NC(=O)CCC(C(=O)O)N3CCN(CC(=O)O)CCN(CC(=O)O)CC3)C(=O)N[C@@H](CC(=O)O)C(=O)N[C@@H](CCCCN)C(=O)N3CCC[C@H]3C(=O)N3CCC[C@H]3C(=O)N[C@@H](CCCNC(=N)N)C(=O)O)c3ccccc3C2(C)C)C(C)(C)c2ccccc21 (stereo partly shown) [^natGa-NODAGA-K(Cy5)DKPPR, metal not drawn] ({NODAGA}-K(Cy5(nonsulfonated))DKPPR-OH; C-terminus assumed)
IC50 [4]: 0.1 µM | Doubling-time values (Time (h) ± SD) (MDA-MB-231 cells; MDA MB 231, 1 µM): 31 ± 1 h | Doubling-time values (Time (h) ± SD) (MDA-MB-231 cells; MDA MB 231, 10 µM): 32 ± 1 h | Proliferation of cells (confluence follow-up) (MDA-MB-231 cells; MDA-MB-231, 0–10 µM): did not modify | Molar extinction coefficient (ε) [6]: 44,552 L mol^−1 cm^−1 | Fluorescence quantum yield (φF) [6]: 61% | Proliferation of cells (confluence follow-up) (HUVEC cells; 0–10 µM): did not modify | Doubling-time values (Time (h) ± SD) (HUVEC cells; 1 µM): 30 ± 3 h | Doubling-time values (Time (h) ± SD) (HUVEC cells; 10 µM): 28 ± 2 h

ATWLPPR [ligand peptide of NRP-1 from previous studies]
IC50 (NRP-1 protein): 19 µM
